Experimental findings from patent US4434175A, “Nonsteroidal compounds as anti-inflammatory and analgesic agents” (Merck & Co., Inc., priority 1982, dated 1984) are described below.

For data set [1], the system named is edema induced by carragenin in rat's right hind paw. Put plainly: rat foot edema assay (carragenin-induced, C.F.E.). The data set is classed as in vivo, rat (male, Sprague Dawley). The procedure:
The rat foot edema assay, by which anti-inflammatory activity is determined, is based on the ability of the compounds of Formula I to inhibit the edema induced by injection of an inflammatory (phlogistic) agent into the tissue of a rat's foot. Groups of six male rats (Sprague Dawley strain, 150±30 g each) are given orally the compounds to be tested one hour before 0.1 ml of 1% suspension of carragenin in methocel (0.5%) is injected into the plantar surface of the rat's right hind paw. Immediately and again three hours later, the foot volume is measured and recorded. The difference between the […] and final volumes is a measurement of the edema produced. For comparative purposes the activity of the compound to be tested is measured against that produced by the known anti-inflammatory agent, e.g. Zomepirac. The activity measured is also corrected by the swelling, if any, produced by the "control" rats which receive only the methocel solution.

A further data set deals with gastric mucosa. The experiment in a line: Gastric Hemorrhage Lesion Formation Assay (GHLF) / gastric irritation. The settings on record: for Ave. No. of lesions per Animal / Animal with Lesion: oral, fasted, 4 h; for Animal with Lesion: animals with at least one lesion/group. The data set is classed as in vivo, rat (Sprague-Dawley, male). The procedure:
In other words, the novel compounds of the present invention are less toxic in terms of gastric irritation. The GHLF test is conducted according to the following procedure:
Rats (Sprague-Dawley, Males, 120-180 gm) were fasted overnight and dosed orally with drug suspended in 0.5% methylcellulose. The drug concentration was adjusted so that each animal received 1.0 ml/100 gm body weight. Four hours later the animals were killed by asphixiation in carbon dioxide, the stomachs removed, cut open and everted. The mucosal lining was washed and examined under 3X magnification. The lesions are indentified as perforations of the gastric mucosa many of which perforate right through the wall of the stomach.
The results are expressed in two ways, the average number of lesions per stomach, and the number of animals in the group showing at least one lesion.

The mark [2] stands for this setting: Rattus norvegicus, oral, one hour before carragenin, foot volume 3 h later.

A word on the inhibition in vivo: it is how much of the control response was suppressed.

On to `COc1cc(CC(=O)O)n(C)c1C(=O)c1ccc(Cl)n1C`, for which, in data set [1] (setting [2]), the inhibition in vivo at 3 mg/kg was found to be 30%, the inhibition in vivo at 10 mg/kg was 35% and the inhibition in vivo at 30 mg/kg was determined as 41%.
For the molecule `Cc1cc(CC(=O)O)n(C)c1C(=O)c1cccn1C`, at 30 mg/kg the inhibition in vivo in data set [1] (setting [2]) was 26%.
In data set [1] (setting [2]), `Cc1cc(CC(=O)O)n(C)c1C(=O)c1ccc(Cl)n1C` came in with an inhibition in vivo at 10 mg/kg of 30% and an inhibition in vivo at 30 mg/kg of 41%.
In data set [1] (setting [2]), `CSc1cc(C(=O)c2c(C)cc(CC(=O)O)n2C)n(C)c1` returned an inhibition in vivo at 10 mg/kg of 33% and an inhibition in vivo at 30 mg/kg of 53%.
Turning to `Cc1cc(CC(=O)O)n(C)c1C(=O)c1ccccn1`, in the data set on gastric mucosa (90 mg/kg), the “Ave. No. of lesions per Animal” value came out at 0 and the “Animal with Lesion” value is reported as 0/6.
In data set [1] (setting [2]), `COc1cc(CC(=O)O)n(C)c1C(=O)c1ccc(F)cc1F` [2,4-F2C6 H5; OCH3; CH3, 5-(o-p-difluorobenzoyl)-4-methoxy-1-methylpyrrole-2-acetic acid] returned an inhibition in vivo at 3 mg/kg of 29%, an inhibition in vivo at 10 mg/kg of 35% and an inhibition in vivo at 30 mg/kg of 38%.
In data set [1] (setting [2]), `COc1cc(CC(=O)O)n(C)c1C(=O)c1ccc(C(F)(F)F)cc1` [4-CF3C6 H5; OCH3; CH3, 5-(p-trifluoromethylbenzoyl)-4-methoxy-1-methylpyrrole-2-acetic acid] registered an inhibition in vivo at 3 mg/kg of 24%, an inhibition in vivo at 10 mg/kg of 48% and an inhibition in vivo at 20 mg/kg of 57%. In addition, in the data set on gastric mucosa (10 mg/kg), the “Ave. No. of lesions per Animal” value is recorded as 0 and the “Animal with Lesion” value is listed as 0/6. Also, in the data set on gastric mucosa (30 mg/kg), the “Ave. No. of lesions per Animal” value was determined as 0 and the “Animal with Lesion” value is listed as 0/6. Moreover, in the data set with gastric mucosa (90 mg/kg), the “Ave. No. of lesions per Animal” value came out at 0 and the “Animal with Lesion” value is recorded as 0/6. Moreover, in the data set with gastric mucosa (150 mg/kg), the “Ave. No. of lesions per Animal” value is listed as 1 and the “Animal with Lesion” value is 1/6.
In data set [1] (setting [2]), `COc1cc(CC(=O)O)n(C)c1C(=O)c1ccc(SC)cc1` [4-CH3 SC6 H5; CH3 O; CH3, 5-(p-methylthiobenzoyl)-4-methoxy-1-methylpyrrole-2-acetic acid] came in with an inhibition in vivo at 3 mg/kg of 45%. In data set [1] (Rattus norvegicus, 15 mg/kg, oral, one hour before carragenin, foot volume 3 h later), this molecule had an inhibition in vivo at 15 mg/kg of 64%. Also, the “Ave. No. of lesions per Animal” value is on record as 0.5 with gastric mucosa (10 mg/kg) and 0.8 in the data set on gastric mucosa (30 mg/kg). Besides, the figures for the “Animal with Lesion” value with gastric mucosa (10 mg/kg) and with gastric mucosa (30 mg/kg) were 3/6 and 2/6, respectively.
For `COc1cc(CC(=O)O)n(C)c1C(=O)c1ccc([S+](C)[O-])cc1` (stereo not shown) [4-CH3 SOC6 H5; CH3 O; CH3, 4-methoxy-5-(p-methylsulfinylbenzoyl)-1-methylpyrrole-2-acetic acid], in data set [1] (setting [2]), the inhibition in vivo at 10 mg/kg is 29% and the inhibition in vivo at 30 mg/kg came to 23%.
`COc1cc(CC(=O)O)n(C)c1C(=O)c1ccc(C)cc1` [4-CH3C6 H5; OCH3; CH3, 5-(p-methylbenzoyl)-4-methoxy-1-methylpyrrole-2-acetic acid] returned an inhibition in vivo at 5 mg/kg in data set [1] (Rattus norvegicus, 5 mg/kg, oral, one hour before carragenin, foot volume 3 h later) of 38%. The molecule further registered an inhibition in vivo at 20 mg/kg in data set [1] (setting [2]) of 38%. Further, the “Ave. No. of lesions per Animal” value with gastric mucosa (10 mg/kg), in the data set on gastric mucosa (30 mg/kg) and in the data set with gastric mucosa (90 mg/kg) was 0 each time. The “Animal with Lesion” value in the data set with gastric mucosa (10 mg/kg), in the data set with gastric mucosa (30 mg/kg) and with gastric mucosa (90 mg/kg) was 0/6 each time.
In data set [1] (setting [2]), `COc1cc(CC(=O)O)n(C)c1C(=O)c1ccc(Cl)cc1` [4-ClC6 H5; CH3 O; CH3, 5-(p-chlorobenzoyl)-4-methoxy-1-methylpyrrole-2-acetic acid] gave an inhibition in vivo at 3 mg/kg of 48%, an inhibition in vivo at 10 mg/kg of 51%, an inhibition in vivo at 20 mg/kg of 60% and an inhibition in vivo at 30 mg/kg of 70%. In addition, in the data set on gastric mucosa (10 mg/kg), the “Ave. No. of lesions per Animal” value was 0 and the “Animal with Lesion” value is 0/5. Moreover, in the data set with gastric mucosa (30 mg/kg), the “Ave. No. of lesions per Animal” value is given as 0 and the “Animal with Lesion” value is recorded as 0/5. In addition, in the data set on gastric mucosa (90 mg/kg), the “Ave. No. of lesions per Animal” value is reported as 2 and the “Animal with Lesion” value was 3/5.
The molecule `CCOc1cc(CC(=O)O)n(C)c1C(=O)c1ccc(Cl)cc1` [4-ClC6 H5; OC2 H5; CH3, 4-ethoxy-5-(p-chlorobenzoyl)-1-methylpyrrole-2-acetic acid] returned an inhibition in vivo at 20 mg/kg in data set [1] (setting [2]) of 33%.
In data set [1] (setting [2]), `C=C(Cl)COc1cc(CC(=O)O)n(C)c1C(=O)c1ccc(Cl)cc1` [4-ClC6 H5; drawing 13; CH3] gave an inhibition in vivo at 3 mg/kg of 30% and an inhibition in vivo at 20 mg/kg of 32%.
On to `CSc1ccc(C(=O)c2c(C)cc(CC(=O)OCCNC(C)=O)n2C)n1C` [Acetamidoethyl 1,4-dimethyl-5-(1-methyl-5-methylthiopyrrol-2-oyl)pyrrole-2-acetate], for which at 10 mg/kg the inhibition in vivo in data set [1] (setting [2]) was 13%. For the same molecule, testing at 30 mg/kg in data set [1] (setting [2]) gave an inhibition in vivo of 21%. Moreover, in data set [1] (footnote to edema table), the “activity in rat foot edema assay” value is on record as “also active”. In addition, the “Ave. No. of lesions per Animal” value in the data set on gastric mucosa (10 mg/kg) is on record as 0; with gastric mucosa (30 mg/kg) it was 0; with gastric mucosa (90 mg/kg), 0.5. For the same molecule, the “Animal with Lesion” value was 0/6 with gastric mucosa (10 mg/kg), 0/6 with gastric mucosa (30 mg/kg) and 2/6 with gastric mucosa (90 mg/kg). Moreover, the “activity, footnote to GHLF table” value with gastric mucosa (footnote to GHLF table) is “also active”.
As for `Cc1cc(CC(=O)O)n(C)c1C(=O)c1ccc(Cl)cc1` [Zomepirac, reference compound], the “Ave. No. of lesions per Animal” value with gastric mucosa (3 mg/kg) was 0.5; with gastric mucosa (6 mg/kg), 1.4; in the data set on gastric mucosa (9 mg/kg) it was 1.4. The “Animal with Lesion” value in the data set with gastric mucosa (3 mg/kg) is recorded as 4/6; in the data set on gastric mucosa (6 mg/kg), 3/6; in the data set with gastric mucosa (9 mg/kg) it was 6/6.
In data set [1] (setting [2]), `CSc1ccc(C(=O)c2c(C)cc(CC(=O)O)n2C)n1C` [drawing 18] registered an inhibition in vivo at 10 mg/kg of 34% and an inhibition in vivo at 30 mg/kg of 45%.
Turning to `Cc1cc(CC(=O)O)n(C)c1C(=O)c1cccnc1` [drawing 19], in data set [1] (setting [2]), the inhibition in vivo at 3 mg/kg turned out to be 34%, the inhibition in vivo at 10 mg/kg was 47% and the inhibition in vivo at 30 mg/kg came out at 33%.
On to `Cc1cc(CC(=O)O)n(C)c1C(=O)c1cccnc1` [drawing 23], for which, in the data set with gastric mucosa (90 mg/kg), the “Ave. No. of lesions per Animal” value was determined as 0 and the “Animal with Lesion” value is 0/6.
With `CSc1ccc(C(=O)c2c(C)cc(CC(=O)O)n2C)n1C` [drawing 24], the “Ave. No. of lesions per Animal” value in the data set with gastric mucosa (10 mg/kg) worked out at 0; in the data set with gastric mucosa (30 mg/kg), 0; in the data set with gastric mucosa (60 mg/kg) it was 1.5. In addition, the “Animal with Lesion” value in the data set with gastric mucosa (10 mg/kg) is 0/6; with gastric mucosa (30 mg/kg), 0/6; in the data set with gastric mucosa (60 mg/kg) it was 4/6.
